US20240384268A1, “Oligonucleotides” (Hudson Institute of Medical Research, priority 2021, published 2024)
In the oligonucleotide strings, read from the 5' end, every base follows the letter of its sugar. An asterisk marks phosphorothioate; unmarked linkages are phosphodiester. Other units and linkages are bracketed, terminal groups are in braces. A string of capitals states the bases alone. d = 2'-deoxy (DNA); m = 2'-O-methyl

Target: T1, human TLR7 (Homo sapiens, UniProt Q9NYK1)
T1 construct: HA; host or cells: 293XL-hTLR7-HA (HEK293)
T1 sequence (Q9NYK1 27-1049): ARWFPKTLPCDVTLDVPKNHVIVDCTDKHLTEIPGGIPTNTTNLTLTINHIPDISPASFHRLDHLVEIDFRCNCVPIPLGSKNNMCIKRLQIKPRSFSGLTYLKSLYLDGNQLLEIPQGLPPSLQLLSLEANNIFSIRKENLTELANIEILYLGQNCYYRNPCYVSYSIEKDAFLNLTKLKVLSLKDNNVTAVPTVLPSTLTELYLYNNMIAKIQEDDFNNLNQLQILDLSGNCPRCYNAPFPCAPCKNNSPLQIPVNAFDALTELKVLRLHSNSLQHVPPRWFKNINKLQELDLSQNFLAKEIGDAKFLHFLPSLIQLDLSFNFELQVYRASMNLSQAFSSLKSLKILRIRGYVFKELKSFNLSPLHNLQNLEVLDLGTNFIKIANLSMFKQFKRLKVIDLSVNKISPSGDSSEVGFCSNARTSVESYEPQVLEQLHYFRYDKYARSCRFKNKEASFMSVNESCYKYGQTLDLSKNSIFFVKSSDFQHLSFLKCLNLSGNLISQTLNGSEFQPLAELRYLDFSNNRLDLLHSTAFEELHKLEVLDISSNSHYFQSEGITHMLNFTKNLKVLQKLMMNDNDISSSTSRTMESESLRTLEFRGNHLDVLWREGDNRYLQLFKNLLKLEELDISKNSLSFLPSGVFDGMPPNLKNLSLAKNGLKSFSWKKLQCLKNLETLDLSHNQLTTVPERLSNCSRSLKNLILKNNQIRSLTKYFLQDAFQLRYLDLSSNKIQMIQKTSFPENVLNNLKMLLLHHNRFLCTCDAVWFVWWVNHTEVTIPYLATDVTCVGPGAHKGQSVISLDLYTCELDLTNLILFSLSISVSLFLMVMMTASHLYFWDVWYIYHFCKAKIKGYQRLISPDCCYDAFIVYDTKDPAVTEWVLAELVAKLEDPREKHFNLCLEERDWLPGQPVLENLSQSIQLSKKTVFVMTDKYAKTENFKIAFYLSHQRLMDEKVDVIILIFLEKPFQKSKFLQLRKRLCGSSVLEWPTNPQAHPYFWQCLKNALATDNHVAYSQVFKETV
Experiment: HEK-TLR7 NF-κB-luciferase reporter, R848 stimulation
Type: cell-based
Settings: for TLR7 100 nM (averaged NF-κB-Luciferase level relative to R848 condition): ASO 100 nM; for TLR7 100 nM (averaged NF-κB-Luciferase level relative to R848 condition) / TLR7 500 nM (averaged NF-κB-Luciferase level relative to R848 condition): relative to R848 only, given as fraction; for TLR7 500 nM (averaged NF-κB-Luciferase level relative to R848 condition): ASO 500 nM; for TLR7-100 nM: averaged NF-κB-Luciferase relative to R848: HEK-TLR7, 100 nM ASO, percentage of R848 without ASO (Alharbi et al., 2020)

Substance	TLR7 100 nM (averaged NF-κB-Luciferase level relative to R848 condition)	TLR7 500 nM (averaged NF-κB-Luciferase level relative to R848 condition)	TLR7-100 nM: averaged NF-κB-Luciferase relative to R848
CATCCACCACGTCGTC (antisense; LNA-modified, pattern not given here) [EGFR-3266 LNA V1]	0.741	0.353	
GCACTTCAGTCTGAGC (antisense; LNA-modified, pattern not given here) [MB21D1-719 LNA KL]	0.713	0.168	
TTCAGGCGCTGCCTTG (antisense; LNA-modified, pattern not given here) [CAMSAP1-2709 LNA V1]	0.642	0.181	
AGTGTTGAGATACTCG (antisense; LNA-modified, pattern not given here) [EGFR-3652 LNA KL]	0.559	0.115	
mA*mG*mU*mC*mU*C*C*A*T*G*T*C*C*C*A*mG*mG*mC*mC*mU (mA*mG*mU*mC*mU*dC*dC*dA*dT*dG*dT*dC*dC*dC*dA*mG*mG*mC*mC*mU; antisense) [[CDKN2B-AS1]2232]			35.77%
CTGCAGCTTCCTTGTC (antisense; LNA-modified, pattern not given here) [CTNN2B-2136 LNA V1]	0.467	0.053	
ACCACGTCTGCTCTAA (antisense; LNA-modified, pattern not given here) [CAMSAP1-1635 LNA KL]	1.078	0.532	
TGGTCCACAACCCCTT (antisense; LNA-modified, pattern not given here) [MB21D1-697 LNA V1]	1.008	0.545	
ATCTGGCAGCCCATCA (antisense; LNA-modified, pattern not given here) [CTNN2B-2516 LNA V1]	0.663	0.279	
GTCAAGGGCATATCCT (antisense; LNA-modified, pattern not given here) [HPRT LNA-732 KL]	0.650	0.142	
mC*mA*mG*mU*mC*T*C*C*A*T*G*T*C*C*C*mA*mG*mG*mC*mC (mC*mA*mG*mU*mC*dT*dC*dC*dA*dT*dG*dT*dC*dC*dC*mA*mG*mG*mC*mC; antisense) [[CDKN2B-AS1]2233]			47.75%
mA*mU*mU*mU*mC*C*A*C*A*T*G*C*C*C*A*mG*mU*mG*mU*mU (AUUUCCACATGCCCAGUGUU; antisense; sugars from the 5' end m5 d10 m5, all phosphorothioate, methylation of C not given here) [[CDKN2B-AS1]626]			32.05%
TCTTCATCGGCCCTGC (antisense; LNA-modified, pattern not given here) [CAMSAP1-2112 LNA V1]	0.820	0.511	
AGGTCTTGGCTTCGTG (antisense; LNA-modified, pattern not given here) [MB21D1-524 LNA V1]	0.457	0.050	
mA*mA*mG*mC*mA*G*T*C*T*C*C*A*T*G*T*mC*mC*mC*mA*mG (mA*mA*mG*mC*mA*dG*dT*dC*dT*dC*dC*dA*dT*dG*dT*mC*mC*mC*mA*mG; antisense) [[CDKN2B-AS1]2236]			35.69%
GGAGGTCTTGGCTTCG (antisense; LNA-modified, pattern not given here) [MB21D1-526 LNA V1]	0.503	0.119	
TCCATACCCAAGGCAT (antisense; LNA-modified, pattern not given here) [CTNN2B-2446 LNA V1]	1.056	0.494	
AATCCAACAAAGTCTG (antisense; LNA-modified, pattern not given here) [HPRT LNA-692 KL]	0.727	0.433	
TGTCTGGAAGCTTCCT (antisense; LNA-modified, pattern not given here) [CTNN2B-808 LNA V1]	0.495	0.278	
